Test results reported in US20230087140A1, “TREATMENT OF PAIN ASSOCIATED WITH CESAREAN SECTION SURGERY WITH SUSTAINED-RELEASE LIPOSOMAL ANESTHETIC COMPOSITIONS” (Pacira Pharmaceuticals, Inc., priority 2020, published 2023).
Structures can show the parent of a compound that is named as a salt.

Assays:
[1] = cited from earlier work
[2] = test system: patients undergoing elective cesarean delivery; assay: Clinical trial safety: treatment-emergent adverse events through day 14 (safety analysis set)
[3] = test system: patients undergoing elective cesarean delivery; assay: Randomized double-blind clinical trial, efficacy of TAP block after cesarean delivery (opioid consumption, VAS pain); format: in vivo, human; conditions: mITT
[4] = TEAEs occurring in >5% of patients in either group
[5] = safety analysis set, through day 14
[6] = treatment-relatedness determined by the investigator

CCCCN1CCCCC1C(=O)Nc1c(C)cccc1C (centres unmarked) [BUPI HCl alone, bupivacaine hydrochloride]
expected duration of action in spinal anesthesia ([1]; 1.4 to 1.6 mL hyperbaric BUPI HCl 0.75%, spinal): ~2 h | duration of analgesia ([1]; standard local anesthetics, TAP block background): 5 to 8 h | TEAE: Back pain [2, 4]: 5 (5.6) number (percentage) | TEAE: Constipation [2, 4]: 4 (4.5) number (percentage) | TEAE: Dizziness [2, 4]: 5 (5.6) number (percentage) | TEAE: Headache [2, 4]: 10 (11.2) number (percentage) | TEAE: Nausea [2, 4]: 11 (12.4) number (percentage) | TEAE: Pruritus [2, 4]: 28 (31.5) number (percentage) | TEAE: Rash [2, 4]: 3 (3.4) number (percentage) | TEAE: Vomiting [2, 4]: 6 (6.7) number (percentage) | Any TEAE [2, 5]: 50 (56.2) number (percentage) | Any treatment-related TEAE [2, 5]: 9 (10.1) number (percentage) | Fatal TEAE [2, 5]: 0 (0.0) number (percentage) | Serious TEAE [2, 5]: 3 (3.4) number (percentage) | Serious TEAEs ([2]; summary of results): ~3% | fatal TEAEs ([2]; summary of results): no fatal TEAEs | patients who experienced a TEAE ([2]; summary of results): 56.2% | Treatment-related TEAE: Back pain [2, 6]: 1 (1.1) number (percentage) | Treatment-related TEAE: Dizziness [2, 6]: 0 (0.0) number (percentage) | Treatment-related TEAE: Dysuria [2, 6]: 1 (1.1) number (percentage) | Treatment-related TEAE: Nausea [2, 6]: 0 (0.0) number (percentage) | Treatment-related TEAE: Pruritus [2, 6]: 8 (9.0) number (percentage) | Treatment-related TEAE: Vomiting [2, 6]: 0 (0.0) number (percentage) | percentage of opioid-free patients at 24 hours ([3]; 24 hours): 93.7% | percentage of opioid-free patients at 48 hours ([3]; 48 hours): 50.6% | percentage of opioid-free patients at 72 hours ([3]; 72 hours): 48.6% | percentage of opioid-spared patients at 72 hours ([3]; 72 hours): 24.7% | median time to first opioid rescue ([3]; median): 41.1 h | LSM (SE) AUC0-72 of VAS pain intensity scores through 72 hours ([3]; through 72 hours, hydrochloride): 178.5 (19.78)
